Measured values as given in patent US9481674B1, “Dihydropyrrolopyridine inhibitors of ROR-gamma” (Vitae Pharmaceuticals, Inc., priority 2016, dated 2016).

How the values were obtained:
[1] = target: T1, recombinant RORγ Ligand Binding Domain (LBD) protein (Homo sapiens, UniProt P51449); assay: Radio-Ligand RORγ Binding Assay (Assay 1); details: cell-free competition with 25-hydroxy[26,27-3H]-cholesterol; read-out: RORγ Binding Ki Range* (nM) (Assay 1)
T1 construct: 6×His; GST
T1 sequence (P51449 269-508 limits assumed): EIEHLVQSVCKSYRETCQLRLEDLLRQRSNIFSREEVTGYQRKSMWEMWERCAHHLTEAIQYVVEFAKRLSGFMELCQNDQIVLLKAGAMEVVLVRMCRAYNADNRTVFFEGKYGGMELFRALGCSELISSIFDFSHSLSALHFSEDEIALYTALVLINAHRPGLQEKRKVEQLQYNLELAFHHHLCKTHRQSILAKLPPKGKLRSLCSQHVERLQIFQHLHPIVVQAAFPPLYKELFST
Description: Radio-Ligand RORγ Binding Assay (Assay 1)
The plate was shaken at 700 rpm for 20 min and incubated for 10 min at rt, after which 40 μL of poly-Lys YSi SPA beads (PerkinElmer, Cat. # RPNQ0010) were added to achieve 50 μg of the beads per well. The plate was incubated on an orbital shaker for 20 min and then for 10 min without agitation at rt. SPA signal for tritium beta radiation was registered on PerkinElmer Microbeta plate reader.

IL-17A production = assay: Human Whole Blood Assay (Assay 3); type: cell-based; details: IL-17A, 50% blood/media, CytoStim, 48 h, read-out: 50% Human Whole Blood Assay IC50, nM* (Assay 3)
Description: Human Whole Blood Assay (Assay 3)
Compounds of the invention were tested in the human whole blood assay to measure their effects on IL-17A production as determined by cytokine secretion into 50% blood/media supernatant. Mixtures of sodium heparinized whole blood (isolated from healthy human donors) and the T cell activator CytoStim, in the presence or absence of compound, were plated in sterilized, tissue culture-treated 24-well plates. Specifically, the mixtures in each well were as follows: (1) 500 μL of whole blood, (2) 250 μL of compound diluted into RPMI-1640 media containing 10% HyClone™ FCS (Thermo Fisher Scientific, Waltham, Mass.), Gibco® Pen/Strep and Gibco® NEAA (Life Technologies, Grand Island, N.Y.), and (3) 250 μL of CytoStim (Miltenyi Biotech, Germany) diluted to a final concentration of 10 μL/mL in complete cell culture medium.
IL-17A cytokine expression was determined using 25 μL of the transferred supernatant diluted with 25 μL of Diluent 43 from the Human IL-17A V-PLEX™ kit (cat. # K151RFD-4, Meso Scale Discovery, Rockville, Md.). The assay was performed according to the manufacturer's instructions using included reagents. The IL-17A V-PLEX™ plates were read using the Meso Scale Discovery Imager (Model 1200).

[2] = target: T2, full-length RORγt in Jurkat cells (Homo sapiens, UniProt P51449)
T2 sequence (P51449 1-497 isoform P51449-2): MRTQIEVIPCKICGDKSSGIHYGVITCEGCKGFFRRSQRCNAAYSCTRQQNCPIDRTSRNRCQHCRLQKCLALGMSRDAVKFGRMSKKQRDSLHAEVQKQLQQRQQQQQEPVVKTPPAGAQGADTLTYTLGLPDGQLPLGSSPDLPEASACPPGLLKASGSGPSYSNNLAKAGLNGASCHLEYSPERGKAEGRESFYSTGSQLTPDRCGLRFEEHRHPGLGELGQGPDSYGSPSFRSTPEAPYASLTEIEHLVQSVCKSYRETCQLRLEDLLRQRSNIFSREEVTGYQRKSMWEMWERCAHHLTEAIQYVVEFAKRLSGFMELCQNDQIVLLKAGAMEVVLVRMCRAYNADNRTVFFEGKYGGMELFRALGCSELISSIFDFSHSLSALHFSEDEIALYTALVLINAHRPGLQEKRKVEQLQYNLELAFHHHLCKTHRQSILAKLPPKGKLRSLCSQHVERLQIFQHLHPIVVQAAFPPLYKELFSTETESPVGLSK
Description: ROR ? t 5×RORE Assay in Jurkat Cells (Assay 2)
Compounds of the present invention were tested for RORγ inverse agonist activity in a cell-based, transcriptional activity assay. […] Luciferase activity in the conditioned supernatants was determined with NanoGlo® assay reagents (Promega, Cat.# N1130).

| Ki [1] [nM] | IC50 (IL-17A production) [nM] | IC50 [2] [nM] | SMILES |
| --- | --- | --- | --- |
| 100 to 1000 |  |  | CCS(=O)(=O)c1ccc([C@H](CO)NC(=O)c2cnc3c(c2)CN(C[C@H]2CC[C@H](C(F)(F)F)CC2)[C@@H]3Cc2ccccc2)cc1 [Compound 40] |
| < 100 | < 100 | < 100 | CCS(=O)(=O)c1ccc([C@H](CO)NC(=O)c2cnc3c(c2)CN(C[C@H]2CC[C@H](C(F)(F)F)CC2)[C@H]3C(C)C)cc1 [Compound 46, (S)—N—((R)-1-(4-(ethylsulfonyl)phenyl)-2-hydroxyethyl)-7-isopropyl-6-((trans-4-(trifluoromethyl)cyclohexyl)methyl)-6,7-dihydro-5H-pyrrolo[3,4-b]pyridine-3-carboxamide] |
| < 100 |  | 100 to 1000 | CCS(=O)(=O)c1ccc([C@H](CO)NC(=O)c2cnc3c(c2)CN(C[C@H]2CC[C@H](C(F)(F)F)CC2)[C@H]3C)cc1 [Compound 26] |
| < 100 |  | < 100 | CCS(=O)(=O)c1ccc([C@H](CO)NC(=O)c2cnc3c(c2)CN(C[C@H]2CC[C@H](C(F)(F)F)CC2)[C@H]3C2CCOCC2)cc1 [Compound 31] |
| < 100 | < 100 | < 100 | CCS(=O)(=O)c1ccc([C@H](CO)NC(=O)c2cnc3c(c2)CN(C[C@H]2CC[C@H](C(F)(F)F)OC2)[C@H]3C(C)C)cc1 (single isomer, unassigned) [Compound 5] |
| < 100 |  |  | CCS(=O)(=O)c1ccc([C@H](CO)NC(=O)c2cnc3c(c2)CN(C[C@H]2CC[C@H](C(F)(F)F)CO2)[C@H]3C(C)C)cc1 (single isomer, unassigned) [Compound 15] |
| < 100 | < 100 |  | CCS(=O)(=O)c1ccc([C@H](CO)NC(=O)c2cnc3c(c2)CN(C[C@@H]2CC[C@@H](C(F)(F)F)CO2)[C@H]3C(C)C)cc1 (single isomer, unassigned) [Compound 14] |
| < 100 | > 200 |  | CCS(=O)(=O)c1ccc([C@@H](NC(=O)c2cnc3c(c2)CN(C[C@H]2CC[C@H](C(F)(F)F)CC2)[C@H]3C(C)C)[C@@H](C)O)cc1 (single isomer, unassigned) [Compound 42] |
| 100 to 1000 |  |  | CCS(=O)(=O)c1ccc([C@H](CO)NC(=O)c2cnc3c(c2)CN(C)[C@H]3Cc2ccccc2)cc1 [Compound 35] |
| < 100 |  | < 100 | CCO[C@H]1CC[C@H](CN2Cc3cc(C(=O)N[C@@H](CO)c4ccc(S(=O)(=O)CC)cc4)cnc3[C@@H]2C(C)C)CC1 [Compound 43] |
|  | > 200 |  | CCS(=O)(=O)c1ccc([C@@H](CO)NC(=O)c2cnc3c(c2)CN(C[C@H]2CC[C@H](C(F)(F)F)CC2)[C@H]3C(C)C)nc1 [Compound 44] |
|  | > 200 |  | CCS(=O)(=O)c1ccc([C@H](CO)NC(=O)c2cnc3c(c2)CN(C[C@H]2CC[C@H](C(F)(F)F)CC2)[C@H]3C(C)C)nc1 [Compound 45] |
| < 100 |  | 100 to 1000 | CCS(=O)(=O)c1ccc(C(C)(CO)NC(=O)c2cnc3c(c2)CN(C[C@H]2CC[C@H](C(F)(F)F)CC2)[C@H]3C(C)C)cc1 (stereo partly shown) [Compound 7] |
| < 100 |  | < 100 | CCS(=O)(=O)c1ccc([C@H](CO)NC(=O)c2cnc3c(c2)CN(C[C@H]2CC[C@H](C(F)(F)F)CC2)[C@H]3Cc2ccccc2)cc1 [Compound 37] |
| < 100 |  | < 100 | CCS(=O)(=O)c1ccc([C@H](CO)NC(=O)c2cnc3c(c2)CN(CC(F)(F)F)[C@H]3Cc2ccccc2)cc1 [Compound 22] |
| < 100 |  | > 1000 | CC(C)[C@H]1c2ncc(C(=O)N[C@@H](CO)c3ccc(S(C)(=O)=O)cc3)cc2CN1C[C@H]1CC[C@@H](C(F)(F)F)CC1 [Compound 8] |
| < 100 | < 100 |  | CCS(=O)(=O)c1ccc([C@H](CO)NC(=O)c2cnc3c(c2)CN(C[C@@H]2CC[C@@H](C(F)(F)F)OC2)[C@H]3C(C)C)cc1 (single isomer, unassigned) [Compound 2] |
| < 100 |  | 100 to 1000 | CCS(=O)(=O)c1ccc([C@H](CO)NC(=O)c2cnc3c(c2)CN(CC(F)(F)F)[C@@H]3Cc2ccccc2)cc1 [Compound 19] |
| < 100 | < 100 |  | CCS(=O)(=O)c1ccc([C@H](CO)NC(=O)c2cnc3c(c2)CN(C[C@@H]2CC[C@@H](C(F)(F)F)OC2)[C@H]3C(C)C)nc1 (single isomer, unassigned) [Compound 1] |
|  | < 100 |  | CC[C@H]1c2ncc(C(=O)N[C@@H](CO)c3ccc(S(=O)(=O)CC)cc3)cc2CN1C[C@H]1CC[C@H](C(F)(F)F)CC1 [Compound 41, (S)-7-ethyl-N—((R)-1-(4-(ethylsulfonyl)phenyl)-2-hydroxyethyl)-6-((trans-4-(trifluoromethyl)cyclohexyl)methyl)-6,7-dihydro-5H-pyrrolo[3,4-b]pyridine-3-carboxamide] |
| < 100 |  |  | CC[C@H]1c2ncc(C(=O)N[C@@H](CO)c3ccc(S(=O)(=O)CC)cc3)cc2CN1C[C@@H]1CC[C@@H](C(F)(F)F)OC1 (single isomer, unassigned) [Compound 11] |
| < 100 |  | < 100 | CCS(=O)(=O)c1ccc([C@H](CO)NC(=O)c2cnc3c(c2)CN(C[C@H]2CC[C@H](C(F)(F)F)CC2)C3C(F)(F)F)cc1 (stereo partly shown) [Compound 23] |
| < 100 |  | < 100 | CCS(=O)(=O)c1ccc([C@H](CO)NC(=O)c2cnc3c(c2)CN(C[C@H]2CC[C@H](C(F)(F)F)CC2)[C@H]3CC2CCOCC2)cc1 [Compound 27] |
| < 100 | 100 to 200 |  | CCS(=O)(=O)c1ccc([C@H](NC(=O)c2cnc3c(c2)CN(C[C@H]2CC[C@H](C(F)(F)F)CC2)[C@H]3C(C)C)[C@H](C)O)cc1 (single isomer, unassigned) [Compound 39] |
| < 100 |  |  | CCS(=O)(=O)c1ccc([C@H](CO)NC(=O)c2cnc3c(c2)CN(C[C@@H]2CC[C@H](C(F)(F)F)CO2)[C@H]3C(C)C)cc1 (single isomer, unassigned) [Compound 18] |
| < 100 | < 100 |  | CC[C@H]1c2ncc(C(=O)N[C@@H](CO)c3ccc(S(=O)(=O)CC)cc3)cc2CN1C[C@H]1CC[C@H](C(F)(F)F)OC1 (single isomer, unassigned) [Compound 10] |
| 100 to 1000 |  |  | CCS(=O)(=O)c1ccc(C(C)(CO)NC(=O)c2cnc3c(c2)CN(C[C@H]2CC[C@H](C(F)(F)F)CC2)[C@@H]3C(C)C)cc1 (stereo partly shown) [Compound 9] |
| > 1000 |  |  | CCS(=O)(=O)c1ccc([C@H](CO)NC(=O)c2cnc3c(c2)CN(C[C@H]2CC[C@H](C(F)(F)F)CC2)[C@@H]3C)cc1 [Compound 28] |
| < 100 |  |  | CCS(=O)(=O)c1ccc([C@H](CO)NC(=O)c2cnc3c(c2)CN(C[C@H]2CC[C@@H](C(F)(F)F)CO2)[C@H]3C(C)C)cc1 (single isomer, unassigned) [Compound 21] |
| < 100 | > 200 | < 100 | CCS(=O)(=O)c1ccc([C@@H](CO)NC(=O)c2cnc3c(c2)CN(C[C@H]2CC[C@H](C(F)(F)F)CC2)[C@H]3C(C)C)cc1 [Compound 47] |
